Values of other authors as cited in US20150050333A1, “PHARMACEUTICAL COMPOSITION COMPRISING OLMESARTAN MEDOXOMIL AND ROSUVASTATIN OR ITS SALT” (priority 2012, published 2015).

Tested on: CYP450

| Compound | Metabolism of olmesartan medoxomil by CYP450 (after in vivo absorption) | Portion of rosuvastatin that is metabolized (metabolized mainly by CYP 2C9 and CYP 2C19) [%] |
| --- | --- | --- |
| CCCc1nc(C(C)(C)O)c(C(=O)OCc2oc(=O)oc2C)n1Cc1ccc(-c2ccccc2-c2nnn[nH]2)cc1 [Olmesartan medoxomil] | not metabolized by CYP450 | – |
| CC(C)c1nc(N(C)S(C)(=O)=O)nc(-c2ccc(F)cc2)c1/C=C/[C@@H](O)C[C@@H](O)CC(=O)O [rosuvastatin] | – | 10 |
